The supplement of paper PMC13207355
Structures can show the parent of a compound that is named as a salt.

What was measured:
Details in all cases: exposure time: 72 h
E13 [1] = patient-derived glioblastoma stem cells of classical subtype; test: surviving fraction (nuclei count normalised to DMSO); higher = more cells surviving (less toxic)
E21 [2] = patient-derived glioblastoma stem cells of mesenchymal subtype; test: as above
E28 [3] = patient-derived glioblastoma stem cells of classical subtype; test: as above
E31 [4] = patient-derived glioblastoma stem cells of proneural subtype; test: as above
E34 [5] = patient-derived glioblastoma stem cells of proneural subtype; test: as above
E57 [6] = patient-derived glioblastoma stem cells of mesenchymal subtype; test: as above
FT3469 [7] = normal neural stem cell line; test: as above
E13 [8] = test: phenotypic distance (Euclidean, principal components) from DMSO controls (arbitrary units); higher = stronger morphological change
E21 [9] = test: as above
E28 [10] = test: as above
E31 [11] = test: as above
E34 [12] = test: as above
E57 [13] = test: as above
FT3469 [14] = test: as above
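For phenotypic distance (Euclidean, principal components) from DMSO controls in this document: cell Painting imaging in 384-well plates, CellProfiler features reduced to at least 20 principal components, Euclidean distance versus same-plate DMSO vehicle wells (0.1% v/v), median over six images per well.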
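For surviving fraction (nuclei count normalised to DMSO) in this document: nuclei counted by high-content imaging of Hoechst-stained cells in laminin-coated 384-well plates, relative to 0.1% DMSO vehicle wells, with staurosporine as cell-death control.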

CCOC(=O)OC(C)OC(=O)[C@@H]1N2C(=O)[C@@H](NC(=O)[C@H](N)c3ccccc3)[C@H]2SC1(C)C (stereo partly specified) [Bacampicillin hydrochloride]
Details | phenotypic distance | surviving fraction
E13 [1], 4.1 nM | – | 0.878
E13 [1], 12.3 nM | – | 0.951
E13 [1], 37 nM | – | 1.03
E13 [1], 111.1 nM | – | 0.813
E13 [1], 333.3 nM | – | 1
E13 [1], 1000 nM | – | 1.04
E13 [1], 3000 nM | – | 1.11
E13 [8], 4.1 nM | 0.65 | –
E13 [8], 12.3 nM | 1.12 | –
E13 [8], 37 nM | 0.975 | –
E13 [8], 111.1 nM | 0.635 | –
E13 [8], 333.3 nM | 0.439 | –
E13 [8], 1000 nM | 0.698 | –
E13 [8], 3000 nM | 0.628 | –
E21 [2], 4.1 nM | – | 0.982
E21 [2], 12.3 nM | – | 1.01
E21 [2], 37 nM | – | 1.09
E21 [2], 111.1 nM | – | 1.01
E21 [2], 333.3 nM | – | 1
E21 [2], 1000 nM | – | 0.914
E21 [2], 3000 nM | – | 1.06
E21 [9], 4.1 nM | 0.814 | –
E21 [9], 12.3 nM | 0.643 | –
E21 [9], 37 nM | 1.05 | –
E21 [9], 111.1 nM | 0.376 | –
E21 [9], 333.3 nM | 0.776 | –
E21 [9], 1000 nM | 0.7 | –
E21 [9], 3000 nM | 0.853 | –
E28 [3], 4.1 nM | – | 0.882
E28 [3], 12.3 nM | – | 0.993
E28 [3], 37 nM | – | 1.09
E28 [3], 111.1 nM | – | 1.19
E28 [3], 333.3 nM | – | 0.997
E28 [3], 1000 nM | – | 1.15
E28 [3], 3000 nM | – | 1.06
E28 [10], 4.1 nM | 0.82 | –
E28 [10], 12.3 nM | 0.789 | –
E28 [10], 37 nM | 1.1 | –
E28 [10], 111.1 nM | 0.421 | –
E28 [10], 333.3 nM | 0.781 | –
E28 [10], 1000 nM | 0.904 | –
E28 [10], 3000 nM | 0.881 | –
E31 [4], 4.1 nM | – | 0.986
E31 [4], 12.3 nM | – | 0.807
E31 [4], 37 nM | – | 0.871
E31 [4], 111.1 nM | – | 0.941
E31 [4], 333.3 nM | – | 1
E31 [4], 1000 nM | – | 0.965
E31 [4], 3000 nM | – | 1.1
E31 [11], 4.1 nM | 0.89 | –
E31 [11], 12.3 nM | 0.639 | –
E31 [11], 37 nM | 0.836 | –
E31 [11], 111.1 nM | 0.578 | –
E31 [11], 333.3 nM | 0.932 | –
E31 [11], 1000 nM | 0.697 | –
E31 [11], 3000 nM | 0.565 | –
E34 [5], 4.1 nM | – | 0.918
E34 [5], 12.3 nM | – | 1.02
E34 [5], 37 nM | – | 0.858
E34 [5], 111.1 nM | – | 0.934
E34 [5], 333.3 nM | – | 1.25
E34 [5], 1000 nM | – | 1.05
E34 [5], 3000 nM | – | 1.07
E34 [12], 4.1 nM | 0.569 | –
E34 [12], 12.3 nM | 0.614 | –
E34 [12], 37 nM | 0.651 | –
E34 [12], 111.1 nM | 0.507 | –
E34 [12], 333.3 nM | 1.28 | –
E34 [12], 1000 nM | 0.329 | –
E34 [12], 3000 nM | 1.06 | –
E57 [6], 4.1 nM | – | 0.987
E57 [6], 12.3 nM | – | 1.09
E57 [6], 37 nM | – | 0.961
E57 [6], 111.1 nM | – | 1.03
E57 [6], 333.3 nM | – | 0.926
E57 [6], 1000 nM | – | 0.97
E57 [6], 3000 nM | – | 0.956
E57 [13], 4.1 nM | 0.537 | –
E57 [13], 12.3 nM | 1.07 | –
E57 [13], 37 nM | 0.681 | –
E57 [13], 111.1 nM | 0.754 | –
E57 [13], 333.3 nM | 0.45 | –
E57 [13], 1000 nM | 0.576 | –
E57 [13], 3000 nM | 0.604 | –
FT3469 [7], 4.1 nM | – | 0.909
FT3469 [7], 12.3 nM | – | 0.875
FT3469 [7], 37 nM | – | 1.05
FT3469 [7], 111.1 nM | – | 0.978
FT3469 [7], 333.3 nM | – | 1.03
FT3469 [7], 1000 nM | – | 1.05
FT3469 [7], 3000 nM | – | 0.858
FT3469 [14], 4.1 nM | 0.697 | –
FT3469 [14], 12.3 nM | 0.387 | –
FT3469 [14], 37 nM | 0.735 | –
FT3469 [14], 111.1 nM | 0.551 | –
FT3469 [14], 333.3 nM | 0.433 | –
FT3469 [14], 1000 nM | 0.827 | –
FT3469 [14], 3000 nM | 0.96 | –

CC[N+](CC)(CC)CCOc1ccc(/C=C/c2ccccc2)cc1 [MG 624]
Details | phenotypic distance | surviving fraction
E13 [1], 4.1 nM | – | 0.872
E13 [1], 12.3 nM | – | 1.01
E13 [1], 37 nM | – | 0.904
E13 [1], 111.1 nM | – | 0.898
E13 [1], 333.3 nM | – | 0.819
E13 [1], 1000 nM | – | 0.958
E13 [1], 3000 nM | – | 0.636
E13 [8], 4.1 nM | 0.785 | –
E13 [8], 12.3 nM | 1.16 | –
E13 [8], 37 nM | 0.769 | –
E13 [8], 111.1 nM | 0.848 | –
E13 [8], 333.3 nM | 1.65 | –
E13 [8], 1000 nM | 2.21 | –
E13 [8], 3000 nM | 2.89 | –
E21 [2], 4.1 nM | – | 0.978
E21 [2], 12.3 nM | – | 0.972
E21 [2], 37 nM | – | 0.961
E21 [2], 111.1 nM | – | 1.05
E21 [2], 333.3 nM | – | 1.02
E21 [2], 1000 nM | – | 0.929
E21 [2], 3000 nM | – | 0.748
E21 [9], 4.1 nM | 0.724 | –
E21 [9], 12.3 nM | 0.703 | –
E21 [9], 37 nM | 0.669 | –
E21 [9], 111.1 nM | 0.982 | –
E21 [9], 333.3 nM | 1.38 | –
E21 [9], 1000 nM | 1.38 | –
E21 [9], 3000 nM | 2.84 | –
E28 [3], 4.1 nM | – | 1.04
E28 [3], 12.3 nM | – | 1.24
E28 [3], 37 nM | – | 0.999
E28 [3], 111.1 nM | – | 1.11
E28 [3], 333.3 nM | – | 1.29
E28 [3], 1000 nM | – | 0.97
E28 [3], 3000 nM | – | 0.897
E28 [10], 4.1 nM | 2.26 | –
E28 [10], 12.3 nM | 1.2 | –
E28 [10], 37 nM | 0.981 | –
E28 [10], 111.1 nM | 1.14 | –
E28 [10], 333.3 nM | 1.59 | –
E28 [10], 1000 nM | 0.807 | –
E28 [10], 3000 nM | 0.948 | –
E31 [4], 4.1 nM | – | 1.02
E31 [4], 12.3 nM | – | 1.02
E31 [4], 37 nM | – | 0.927
E31 [4], 111.1 nM | – | 1.22
E31 [4], 333.3 nM | – | 1.03
E31 [4], 1000 nM | – | 1.11
E31 [4], 3000 nM | – | 0.671
E31 [11], 4.1 nM | 2.31 | –
E31 [11], 12.3 nM | 2.34 | –
E31 [11], 37 nM | 0.662 | –
E31 [11], 111.1 nM | 1.14 | –
E31 [11], 333.3 nM | 1.83 | –
E31 [11], 1000 nM | 2.39 | –
E31 [11], 3000 nM | 3.97 | –
E34 [5], 4.1 nM | – | 1.13
E34 [5], 12.3 nM | – | 0.931
E34 [5], 37 nM | – | 0.93
E34 [5], 111.1 nM | – | 0.904
E34 [5], 333.3 nM | – | 1.06
E34 [5], 1000 nM | – | 1.1
E34 [5], 3000 nM | – | 0.853
E34 [12], 4.1 nM | 0.531 | –
E34 [12], 12.3 nM | 0.708 | –
E34 [12], 37 nM | 1 | –
E34 [12], 111.1 nM | 0.94 | –
E34 [12], 333.3 nM | 1.4 | –
E34 [12], 1000 nM | 1.76 | –
E34 [12], 3000 nM | 0.649 | –
E57 [6], 4.1 nM | – | 0.981
E57 [6], 12.3 nM | – | 0.982
E57 [6], 37 nM | – | 1.06
E57 [6], 111.1 nM | – | 1.1
E57 [6], 333.3 nM | – | 1.15
E57 [6], 1000 nM | – | 0.922
E57 [6], 3000 nM | – | 1.05
E57 [13], 4.1 nM | 0.764 | –
E57 [13], 12.3 nM | 0.906 | –
E57 [13], 37 nM | 0.99 | –
E57 [13], 111.1 nM | 1.14 | –
E57 [13], 333.3 nM | 1.29 | –
E57 [13], 1000 nM | 1.55 | –
E57 [13], 3000 nM | 1.49 | –
FT3469 [7], 4.1 nM | – | 0.999
FT3469 [7], 12.3 nM | – | 0.934
FT3469 [7], 37 nM | – | 1.26
FT3469 [7], 111.1 nM | – | 1.25
FT3469 [7], 333.3 nM | – | 1.13
FT3469 [7], 1000 nM | – | 1.12
FT3469 [7], 3000 nM | – | 1.03
FT3469 [14], 4.1 nM | 0.491 | –
FT3469 [14], 12.3 nM | 1.05 | –
FT3469 [14], 37 nM | 0.814 | –
FT3469 [14], 111.1 nM | 1.61 | –
FT3469 [14], 333.3 nM | 1.29 | –
FT3469 [14], 1000 nM | 1.26 | –
FT3469 [14], 3000 nM | 1.36 | –
